Laboratory results published in publication PMC3076504 (2011).

Biological target: Isocitrate lyase (ICL) (Mycobacterium tuberculosis, UniProt P9WKK7)
Test: colorimetric glyoxylate-phenylhydrazone assay at […] nm, dose response
Type: biochemical

Isocitrate lyase (ICL), sequence (P9WKK7 whole entry): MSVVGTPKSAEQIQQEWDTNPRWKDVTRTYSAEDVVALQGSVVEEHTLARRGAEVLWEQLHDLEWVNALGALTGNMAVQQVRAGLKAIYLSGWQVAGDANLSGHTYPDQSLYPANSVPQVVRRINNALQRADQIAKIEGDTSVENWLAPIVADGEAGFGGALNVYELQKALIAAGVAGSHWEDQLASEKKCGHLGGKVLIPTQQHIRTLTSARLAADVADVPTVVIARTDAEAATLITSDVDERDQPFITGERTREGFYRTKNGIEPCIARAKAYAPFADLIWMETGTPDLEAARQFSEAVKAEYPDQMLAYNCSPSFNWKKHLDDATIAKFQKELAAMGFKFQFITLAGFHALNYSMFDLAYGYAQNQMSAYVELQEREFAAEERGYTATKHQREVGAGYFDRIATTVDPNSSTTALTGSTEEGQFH

In the case of O=C(O)C(=O)O [oxalic acid], the IC50 is reported as 13 mM.
